The values that follow come from patent publication US5412125A, “Dipeptidic amides derived from glycyl-serine as surfactants or hydrating agents and cosmetic, pharmaceutical or alimentary compositions containing the same” (L'Oreal, priority 1991, dated 1995).

Where a SMILES comes first, the peptide text is derived from it. The star is where a group is joined. Lauroyl = CCCCCCCCCCCC(=O)*

This data set is described as follows: Foaming power study (brush-developed foam in graduated cylinder). The format is physicochemical. Conditions: 5% aqueous solution (weight/volume), 5 ml with 6 mg natural feminine sebum; after 180 sec stirring. The procedure: The test consists in developing the foam using a brush made of natural hog bristles (length=[…]) displaced in a plexiglass graduated cylindrical container (inside diameter=35 mm). This container is driven in a uniform circular motion which is the reverse of that described by the brush. This permits a good distribution of the foam in the graduated container despite the small amounts developed. (brush speed=100 rpm, container speed=10 rpm). The procedure is carried out using 5 ml of each solution studied to which has been added 6 mg of natural feminine sebum. The foam heights are recorded after one, two and three minutes of stirring.

As to `CCCCCCCCCCCC(=O)NCC(=O)NCC(=O)[O-].[Na+]` [compound A, sodium salt of N-dodecanoyl-glycyl-glycine] (Lauroyl-Gly-Gly-OH), the “Foam Height (cm) at the end of a time of 180 sec” value is given as 20 cm.
